Assay results: ChEMBL document CHEMBL6121070, “Covalent-Allosteric Inhibitors: Do We Get the Best of Both Worlds?” (J Med Chem, 2025)
Blank lines part the entries; values can stand above or below the compound they belong to.

What was measured:
[1] = molecular target: T1, Tyrosine-protein phosphatase non-receptor type 1 (Homo sapiens, UniProt P18031); test: Inhibition of 6xHis-tagged human PTP1B catalytic domain using pNPP as substrate by […] based assay
T1 sequence (P18031 whole entry): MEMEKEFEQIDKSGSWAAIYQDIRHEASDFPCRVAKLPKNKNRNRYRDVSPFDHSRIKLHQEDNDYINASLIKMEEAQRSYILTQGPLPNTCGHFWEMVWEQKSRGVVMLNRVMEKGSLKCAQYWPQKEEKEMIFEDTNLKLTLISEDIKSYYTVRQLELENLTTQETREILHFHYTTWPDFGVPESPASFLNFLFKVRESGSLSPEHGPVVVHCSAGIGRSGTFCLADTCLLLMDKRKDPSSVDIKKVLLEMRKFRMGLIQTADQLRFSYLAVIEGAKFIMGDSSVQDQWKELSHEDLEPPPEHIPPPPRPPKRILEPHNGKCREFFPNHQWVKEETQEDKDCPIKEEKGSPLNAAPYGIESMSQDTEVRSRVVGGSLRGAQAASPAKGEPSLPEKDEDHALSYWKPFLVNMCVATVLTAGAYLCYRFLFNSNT

[2] = molecular target: T2, Tyrosine-protein phosphatase non-receptor type 11 (Homo sapiens, UniProt Q06124); test: Binding affinity to SHP2 (unknown origin) assessed as inhibition constant
T2 sequence (Q06124 whole entry): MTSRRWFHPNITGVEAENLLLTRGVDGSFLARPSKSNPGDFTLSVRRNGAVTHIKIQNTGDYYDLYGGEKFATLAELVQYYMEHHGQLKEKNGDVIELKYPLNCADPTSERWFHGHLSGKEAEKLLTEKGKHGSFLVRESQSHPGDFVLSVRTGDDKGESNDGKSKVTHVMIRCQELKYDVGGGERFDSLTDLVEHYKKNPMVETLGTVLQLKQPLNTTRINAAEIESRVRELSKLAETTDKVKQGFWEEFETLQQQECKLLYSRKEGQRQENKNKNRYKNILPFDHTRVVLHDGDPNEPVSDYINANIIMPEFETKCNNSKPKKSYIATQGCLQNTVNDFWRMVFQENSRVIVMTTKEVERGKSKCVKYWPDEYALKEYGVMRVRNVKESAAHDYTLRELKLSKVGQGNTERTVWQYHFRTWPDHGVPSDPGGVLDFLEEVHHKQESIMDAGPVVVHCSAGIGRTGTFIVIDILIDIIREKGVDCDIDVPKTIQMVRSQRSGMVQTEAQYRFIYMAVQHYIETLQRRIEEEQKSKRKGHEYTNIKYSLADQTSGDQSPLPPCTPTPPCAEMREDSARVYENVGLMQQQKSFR

[3] = Non-competitive allosteric inhibition of PTP1B (unknown origin) transformed in Escherichia coli BL21; parameters: species or system Homo sapiens
[4] = Covalent allosteric inhibition of full length AKT (unknown origin); parameters: species or system Homo sapiens

IC50 [1]: 35 µM | Ki [2]: 279 µM
SMILES: C=CC(=O)Nc1ccnc2ccccc12

SMILES: CN(C)CCSSCC(=O)Nc1cc(-c2ccc(F)cc2F)ccc1O
Ki [3]: 7.1 µM

Ki [4]: 0.0069 µM
SMILES: C=CC(=O)Nc1cccc(C(=O)NC2CCN(Cc3ccc(-c4nc5cc[nH]c(=O)c5cc4-c4ccccc4)cc3)CC2)c1
